Data: patent publication US20040166163A1, “Antibacterial composition for medical tool” (priority 2001, published 2004)

What was measured:
Assay type in all cases: cell-based
Lactobacillus = experiment: Antimicrobial test of PVC test piece, bacteria (surviving cells); conditions: soft PVC sheet; ZnPT 0.01 + test compound 0.3 parts per 100 PVC; 35° C., 2 days
Experimental: (§1) A mixture having the formulation described below was roll kneaded at 170° C. to prepare a sheet, which was pressed at 180° C. for 5 minutes to obtain a 0.5 mm thick soft PVC sheet. A 10 mm×10 mm test piece was cut out of the soft PVC sheet and evaluated for antimicrobial properties against bacteria (Nos. 1 to 5 in Table 1) and fungi (Nos. 6 to 8 in Table 1) in accordance with the respective methods described below.
(§2) The culture solution was applied to the test piece, and the test piece was tightly covered with polyethylene cling film. After cultivation at 35° C. for 2 days, the number of surviving cells was counted and rated based on the following criteria.
(§3) A mixture having the formulation shown below was roll kneaded at 170° C. to prepare a sheet, which was pressed at 180° C. for 5 minutes to obtain a 0.5 mm thick semi-rigid PVC sheet. A 10 mm×10 mm test piece was cut out of the semi-rigid PVC sheet. Zinc pyrithione and a test compound were previously compounded to prepare an antimicrobial composition in a predetermined ratio to give the formulation. The test piece was tested in the same manner as in Example 1.

MRSA = experiment: as above; conditions: soft PVC sheet; ZnPT 0.01 + test compound 0.3 parts per 100 PVC; 35° C., 2 days
Experimental: as §1, §2, §3

Staphylococcus aureaus = experiment: as above; conditions: soft PVC sheet; ZnPT 0.01 + test compound 0.3 parts per 100 PVC; 35° C., 2 days
Experimental: as §1, §2, §3

Escherichia coli = experiment: as above; conditions: soft PVC sheet; ZnPT 0.01 + test compound 0.3 parts per 100 PVC; 35° C., 2 days
Experimental: as §1, §2, §3

Bacillus subtilis = experiment: as above; conditions: soft PVC sheet; ZnPT 0.01 + test compound 0.3 parts per 100 PVC; 35° C., 2 days
Experimental: as §1, §2, §3

Trichophyton = experiment: Antimicrobial test of PVC test piece, fungi (growth on agar-covered piece); set-up: key: A: No growth on the test piece.; B: The grown fungi covers less than 30% of the test piece's surface area.; C: The grown fungi covers 30% or more and less than 70% of the test piece's surface area.; D: The grown fungi covers 70% or more of the test piece's surface area; conditions: soft PVC sheet; ZnPT 0.01 + test compound 0.3 parts per 100 PVC; 35° C., 1 week
Experimental: as §1
(§4) The test piece was placed at the center of a culture dish, and a common agar medium was poured to thinly cover the test piece. The culture solution was applied to the agar medium and cultivated at 35° C. for 1 week. The growth of the fungus was observed and rated based on the following criteria.
as §3

Kurokawa mold = experiment: as above; set-up: key: A: No growth on the test piece.; B: The grown fungi covers less than 30% of the test piece's surface area.; C: The grown fungi covers 30% or more and less than 70% of the test piece's surface area.; D: The grown fungi covers 70% or more of the test piece's surface area; conditions: soft PVC sheet; ZnPT 0.01 + test compound 0.3 parts per 100 PVC; 35° C., 1 week
Experimental: as §1, §4, §3

Brewer's yeast = experiment: as above; set-up: key: A: No growth on the test piece.; B: The grown fungi covers less than 30% of the test piece's surface area.; C: The grown fungi covers 30% or more and less than 70% of the test piece's surface area.; D: The grown fungi covers 70% or more of the test piece's surface area; conditions: soft PVC sheet; ZnPT 0.01 + test compound 0.3 parts per 100 PVC; 35° C., 1 week
Experimental: as §1, §4, §3

Row | SMILES | Survival rate rating, microorganism 4: Lactobacillus (Lactobacillus) | Survival rate rating, microorganism 2: MRSA (MRSA) | Survival rate rating, microorganism 1: Staphylococcus aureaus (Staphylococcus aureaus) | Survival rate rating, microorganism 5: Escherichia coli (Escherichia coli) | Survival rate rating, microorganism 3: Bacillus subtilis (Bacillus subtilis) | Fungal growth rating, microorganism 6: Trichophyton (Trichophyton) | Fungal growth rating, microorganism 8: Kurokawa mold (Kurokawa mold) | Fungal growth rating, microorganism 7: Brewer's yeast (Brewer's yeast)
1 | Cc1cc2c(c(C(C)(C)C)c1)OP(=O)([O-])Oc1c(cc(C)cc1C(C)(C)C)C2.[Na+] [No. 6] | A (The survival rate is less than 0.1%.) | A (The survival rate is less than 0.1%.) | A (The survival rate is less than 0.1%.) | A (The survival rate is less than 0.1%.) | A (The survival rate is less than 0.1%.) | A | A | A
2 | CC1c2cc(C(C)(C)C)cc(C(C)(C)C)c2OP(=O)([O-])Oc2c1cc(C(C)(C)C)cc2C(C)(C)C.[Na+] (stereo not drawn) [No. 7] | A (The survival rate is less than 0.1%.) | A (The survival rate is less than 0.1%.) | A (The survival rate is less than 0.1%.) | A (The survival rate is less than 0.1%.) | A (The survival rate is less than 0.1%.) | A | A | A
3 | Cc1c(C(C)(C)C)cc(C(C)(C)C)c2c1C(C)c1c(C)c(C(C)(C)C)cc(C(C)(C)C)c1OP(=O)([O-])O2.[Na+] (stereo not drawn) [No. 8] | A (The survival rate is less than 0.1%.) | A (The survival rate is less than 0.1%.) | A (The survival rate is less than 0.1%.) | A (The survival rate is less than 0.1%.) | A (The survival rate is less than 0.1%.) | A | A | A
